Series [1] in a line: Pharmacokinetic study in nude mice, oral. The series is classed as in vivo. The settings on record: mouse, one oral bolus 40 mg/kg, plasma. The protocol: To further characterize C98 in the treatment of MM, we determined its pharmacokinetic parameters. One bolus of 40 mg/kg of C98 was orally administrated, blood samples were then collected at the time points of 0.167, 0.5, 1, 2, 4, 6, 8, and 24 hr.
Prior to dose administration, nude mice (Shanghai Slac Laboratory Animal Co. Ltd., Shanghai, China) were fasted overnight with free access to water in the regular light-dark cycle. A group of 9 mice received an oral dose of C98 at 40 mg/kg. Blood samples were collected from three mice (n = 3) at each time points as follows: 0.167, 0.5, 1, 2, 4, 6, 8, and 24 hr. Blood samples (100 μL) were immediately mixed with 10 μL of EDTA and plasma was obtained by centrifugation at 1.3 × 10^4 rpm for 10 min. Samples were stored at –80°C for LC-MS/MS analysis. Plasma concentration versus time was analyzed using WinNolin software (version 6.2.1, Pharsight, USA) and the pharmacokinetic parameters maximum drug concentration (Cmax), time to reach maximum drug concentration (Tmax), half life (t1/2), area under the plasma level-time curve (AUC) were calculated.
Concentrations of C98 in plasma and in tumor tissues were analyzed by a LC-MS/MS method as described previously. Chromatographic separation was achieved using an Agela Venusil XBP C18 column (50 × 2.1 mm; […] particle size, Bonna-Agela Technologies, Tianjin, China). The column temperature was maintained at 40°C. Gradient elution at a flow rate of 0.3 mL/min was performed using the mobile phases: A, acetonitrile: water: formic acid (5: 95: 0.1, v: v: v) and B, acetonitrile: water: formic acid (95: 5: 0.1, v: v: v).
The mass spectrometer was operated in the negative ionization mode. The ion transitions for the multiple reaction monitored were: C98, 346.6 (M-H)→312.7; betamethasone (internal standard, IS), 391.1 (M-H)→ 361.4, with a dwell time of 100 ms per transition. After setting the collision energy and mass transition for C98 and the Internal standard, all other parameters were optimized for the best sensitivity. Data was processed by the Analyst 1.5.2 data collection and integration software (AB Sciex, Framingham, MA).
Supplementary Figure S5: The time-concentration profiles of C98 in plasma after oral administration. Nude mice were orally administrated C98 at a dose of 40 mg/kg. Blood species were then collected at a serial of time points (0, 0.167, 0.5, 1, 1.5, 2, 4, 6, 8, 24 hr) and subject to LC-MS/MS analysis after treatment as described in the Methods section. Resultant plasma concentration versus time data was analyzed using WinNolin software.
(also on this page, place not known: www.impactjournals.com/oncotarget/ Oncotarget, Materials 2014 Supplementary) […]

Series [2] in a line: Body weight and hematology analysis in xenograft mice. The series is classed as in vivo. As for the experimental part:
Totally 50 female […] mice from Shanghai Slac Laboratory Animal Co. Ltd were used for the xenograft models with human MM cell lines OPM2 and JJN3, respectively. When tumors were palpable, the OPM2-xenograft mice were randomly divided into two groups. One group as a control was received the vehicle, and another group was orally administrated C98 (80 mg/kg) once a day for continuous 16 days. The JJN3 xenografted mice were randomly divided into three groups which were orally administrated vehicle or C98 (40 or 80 mg/kg), respectively. Body weight and tumor volumes were measured every other day as described previously. At the end of this experiment, tumors were collected for further studies. The concentrations of C98 in tumor tissues were also determined by LC-MS/MS as described above. All experiments involved in mice were reviewed and approved by the Review Board of Animal Care and Use of Soochow University.
At the end of the experiment of the in vivo studies, whole blood samples were collected from the eyes and were immediately subject to complete blood analysis as described previously. […]
www.impactjournals.com/oncotarget/ Oncotarget, Supplementary Materials 2014 […]
OPM2 (A) and JJN3 (B) were injected (s.c.) […]
into nude mice. When tumors were palpable, mice were orally administrated C98 at dosage as indicated for continued 16 days. Mice bodyweight was monitored every other day. […]

The test system of a further series is OPM2 and RPMI-8226 cells. In words: MTT assay with IGF-1 rescue. The series is classed as cell-based. The settings on record: OPM2 and RPMI-8226, IGF-1 alone or together with C98, 48 hr. The protocol:
To answer whether C98 could induce apoptosis in other MM cells, 5 more MM cells were subject to the study. […] Cell apoptosis induced by C98 was further confirmed by the increased fraction of positive cells stained with Annexin V (Figure 5). To show whether activated PI3K signals can rescue C98 effects on MM cells, both OPM2 and RPMI-8226 cells were treated with IGF-1 alone or together with C98 for 48 hr followed by MTT assay.
Cell viability was assessed with the MTT assay as reported previously. To show apoptosis, MM cells were incubated for 24 hr with increasing concentrations of C98 before being stained with Annexin V-FITC and propidium iodide (BioVision Milpitas, CA). Apoptotic cells were measured on a flow cytometer (FACSCalibur®, Becton Dickinson) as reported as previously. […]
www.impactjournals.com/oncotarget/ Oncotarget, Supplementary Materials 2014
Supplementary Figure S3: IGF-1 rescues C98-decreased MM cell proliferation. OPM2 and RPMI-8226 cells were treated with IGF-1 alone or increased C98 for 48 hr, followed by MTT assay. […]

In a further series the test system is ERK. Nature of the series: Immunoblotting of ERK phosphorylation in OPM2 and JJN3 cells. The series is classed as cell-based, human. The conditions noted are these: OPM2 and JJN3, 24 hr. The protocol:
(B) LP1 and JJN3 cells were starved overnight, then treated with C98 or S14161 for 2 hr, followed by IGF-1 (100 ng/mL) for 15 min. Cells were then prepared for the analysis of the expression of p-AKT, t-AKT, p-IGF-1R, and IGF-1R by immunoblotting. (C) OPM2 and JJN3 cells were treated with increasing concentrations of C98 for 24 hr before being applied to immunoblotting against p-ERK, t-ERK, p-P38, t-P38, p-Src, t-Src, p-STAT3, or t-STAT3. GAPDH and β-actin were used as loading controls.
To further clarify the effects of C98 on other signaling pathways associated with PI3K signaling, we evaluated ERK and p38, both of which mediate extracellular signaling similar to PI3K. […] We also checked the phosphorylation status of STAT3, a signal transducer and activator of transcription. […] Therefore, C98 had no effects on these kinases/proteins associated with PI3K signaling.
The immunoblotting assays were performed as described previously. IRDye 680 goat anti-mouse and IRDye 800CW goat anti-rabbit antibodies were from Odyssey (San Ramon, CA, USA).
(Immunoblotting shows a protein as a band on a membrane.)

The MRT is the average time that molecules of a dose stay in the body. For the compound `N#C/C(=C\C=C\c1ccc(-c2cc(Cl)ccc2Cl)o1)C(N)=S` [C98], the MRT in series [1] (read-out: mean residence time (MRT)) came out at 4.48 h. Also, the Cmax in series [1] (read-out: median peak concentration (Cmax)) was 367 ng/mL. In addition, in series [1] (read-out: time to maximal concentration (Tmax)), the Tmax was determined as 0.5 h. Besides, in series [1] (nude, po, 40 mg/kg, read-out: half-life (t1/2) (converted)), the half-life was 2.03 h. Further, the “body weight of mice” value in series [2] (OPM2 and JJN3 xenograft models, oral 40 or 80 mg/kg, 16 days) is “had no effects on body weight”. For the same compound, the “blood cell count, platelet count, hemoglobin measurement” value in series [2] (mice treated with C98, end of the in vivo studies (data not shown)) is “no significant changes”. In the series on OPM2 and RPMI-8226 cells, the “MM cell proliferation (MTT), rescue by IGF-1” value is listed as “IGF-1 could partly abolish C98-decreased MM cell proliferation”. Moreover, the “phosphorylation level of ERK” value in the series on ERK is listed as “failed to decrease”.

For the origin of these results see article PMC4381587, “A novel PI3K inhibitor PIK-C98 displays potent preclinical activity against multiple myeloma” (Oncotarget, 2014).
